Assay results reported in PubChem BioAssay (NCI).
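Cultured in 96-well plates, cells were exposed to test compound for 48 hours across five concentrations. Here, GI50 denotes the concentration required for 50% inhibition of growth. TGI marks complete inhibition of growth.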

Assays:
Assay in all cases: growth of human tumour cells (NCI), 48 h
[1] = tested on: OVCAR-3 ovarian
[2] = tested on: SR leukemia
[3] = tested on: EKVX NSCLC
[4] = tested on: RPMI-8226 leukemia
[5] = tested on: TK-10 renal
[6] = tested on: SF-268 CNS
[7] = tested on: BT-549 breast
[8] = tested on: MDA-MB-435
[9] = tested on: RXF 393 renal
[10] = tested on: SW-620 colon
[11] = tested on: SF-295 CNS
[12] = tested on: SK-MEL-5 melanoma
[13] = tested on: T-47D breast
[14] = tested on: MOLT-4 leukemia
[15] = tested on: HOP-92 NSCLC
[16] = tested on: 786-0 renal
[17] = tested on: SNB-19 CNS
[18] = tested on: OVCAR-8 ovarian
[19] = tested on: UACC-257 melanoma
[20] = tested on: UO-31 renal
[21] = tested on: HS 578T breast
[22] = tested on: M14 melanoma
[23] = tested on: HL-60(TB) leukemia
[24] = tested on: MALME-3M melanoma
[25] = tested on: MDA-MB-468 breast
[26] = tested on: UACC-62 melanoma
[27] = tested on: CAKI-1 renal
[28] = tested on: HT29 colon
[29] = tested on: SN12C renal

COc1ccc(C(=O)/C=C/c2cccc(Cl)c2Cl)cc1S(N)(=O)=O
GI50 [1]: 1.8 µM | TGI [1]: 4.42 µM | GI50 [2]: 1.54 µM | TGI [2]: 5.36 µM | GI50 [3]: 10.3 µM | TGI [3]: 20.9 µM | GI50 [4]: 2.88 µM | TGI [4]: 16.2 µM | GI50 [5]: 5.18 µM | TGI [5]: 16.9 µM | GI50 [6]: 3.45 µM | TGI [6]: 14.5 µM | GI50 [7]: 4.73 µM | TGI [7]: 17 µM | GI50 [8]: 9.65 µM | TGI [8]: 20.7 µM | GI50 [9]: 2.09 µM | TGI [9]: 8.56 µM | GI50 [10]: 1.58 µM | TGI [10]: 3.3 µM | GI50 [11]: 3.89 µM | TGI [11]: 14.7 µM | GI50 [12]: 9.19 µM | TGI [12]: 19.4 µM | GI50 [13]: 3.94 µM | TGI [13]: 16.4 µM | GI50 [14]: 2.09 µM | TGI [14]: 6 µM | GI50 [15]: 5.44 µM | TGI [15]: 17.2 µM | GI50 [16]: 1.88 µM | TGI [16]: 4.28 µM | GI50 [17]: 5.09 µM | TGI [17]: 16.1 µM | GI50 [18]: 2.37 µM | TGI [18]: 8.78 µM | GI50 [19]: 11.2 µM | TGI [19]: 22.5 µM | GI50 [20]: 1.48 µM | TGI [20]: 3.51 µM | GI50 [21]: 8.64 µM | TGI [21]: 32.1 µM | GI50 [22]: 9.52 µM | TGI [22]: 21 µM | GI50 [23]: 7.84 µM | TGI [23]: 34.2 µM | GI50 [24]: 9.71 µM | TGI [24]: 20.1 µM | GI50 [25]: 2.93 µM | TGI [25]: 13.1 µM | GI50 [26]: 4.85 µM | TGI [26]: 16.2 µM | GI50 [27]: 4.36 µM | TGI [27]: 15 µM | GI50 [28]: 1.52 µM | TGI [28]: 2.99 µM | GI50 [29]: 1.82 µM | TGI [29]: 3.91 µM
